Marks after values point to notes of the source that are not given here.
Assays:
ApoE−/− mice = test: Atherosclerosis in ApoE−/− mice fed a high fat diet; format: in vivo, mouse; parameters: key to CORONARY AND MYOCARDIAL VESSELS INFLAMMATION / AORTIC INFLAMMATION: ++++ for severe; + for very mild
Description: C10 reduced vascular inflammation in ApoE−/− mice fed a high fat diet: C10 was given i.p. (1 mg/kg) every other day to mice for 8 weeks. Control mice received DMSO alone. Mice were sacrificed at 8 weeks and histopathology examined in different tissues as determined by hematoxylin and eosin staining. In FIG. 15, sections from the base of the aorta in C10 treated (FIG. 15, Panel A) and untreated mice (FIG. 15, Panel B) are presented as well as sections of the coronary artery vasculature in C10 treated (FIG. 15, Panel C) and untreated mice (FIG. 15, Panel D). Vessels in the myocardium were also compared in C10 treated and untreated mice. […] Similarly in Panel D, the picture is representative of long sections of the coronary arteries that were nearly fully occluded with plaque in untreated mice whereas in C10 treated mice (Panel C), coronary arteries were largely unobstructed. Further, even where lesions were evident the lumens of vessels remained patent. Vessels within the myocardium were obstructed by plaque in the absence of C10 but patent and nearly free of plaque in the mice treated with C10. Data are representative of multiple slides taken from multiple animals.
Sections of the coronary arteries and myocardium as well as the base of the aorta were compared in untreated mice vs. C10 treated mice both for extent of lesion, quality of lesion, overexpressed TLR4, overexpressed VCAM-1, and extent of inflammation and plaque. Lesions and observations were qualitatively evaluated using ++++ for severe to + for very mild. […] Evaluation was double blinded.
Experimental animals: Twenty female Apo E−/− mice (Jackson Laboratory), 5 weeks old and weighing 14.5 g (average weight), were divided in 4 groups: (1) animals treated with 10% DMSO; (2) animals treated orally with C-10 in DMSO (1 mg/kg body weight); (3) animals treated I/P with C-10 in DMSO (same dose); and (4) control animals without treatment.
The treatment was done every other day (8 week expt) or every day. The animals were fed on a Western-type diet (TD 88137 from Harlan, Teklan). […]

IRF-1 = test: LPS-increased IRF-1 mRNA and IRF-1 binding to MxISRE in RAW 264.7 macrophages (Northern, EMSA); format: cell-based, mouse
Source text: IRF-1 is a transcription factor which is induced upon LPS stimulation of macrophages through a Stat1 dependent mechanism (Y. Ohmori, et al., J Leukoc Biol, 69:598-604 (2001)). Therefore IRF-1 provides another example of a response that may be affected by an inhibitor of LPS induced IFN-β signaling. Unlike other molecules studied thus far, IRF-1 acts as a transcription factor to directly bind to DNA to enhance transcription of other genes such as iNOS (R. Kamijo, et al., Science, 263:1612-5, (1994)). In macrophages treated with LPS, IRF-1 is required for the transcriptional control of the iNOS gene (R. Kamijo, et al., Science, 263:1612-5 (1994)). […] Typical LPS induction for each time point is observed in each LPS plus DMSO lane (FIG. 14A, lanes 2, 5, 8). […] The decrease by C10 is much greater than by MMI (FIG. 14A, lanes 6 and 9 vs 7 and 10, respectively). […] Specificity was observed upon incubation of extracts with unlabeled […] probe (FIG. 14B, lane 9). […] ID NO:23) and [NT] (469 bp) (SEQ ID NO:24); […] ID NO:25) and [NT] […] ID NO:27) and [NT] […] ID NO:29) and [NT] (586 bp) (SEQ ID NO:30). […] EMSA in RAW 264.7 cells: Nuclear extracts were prepared using NE-PER® extraction reagents (Pierce Chemical Co.; Rockford, Ill.) in the presence of a protease inhibitor cocktail (PMSF, Leupeptin, Pepstatin-A). Oligonucleotide sense strand probe sequences were as follows […] probe: [NT] […]

horses = test: LPS-induced endotoxemia and endotoxic shock in horses; format: in vivo, horse; settings: for Dyspnea and Tachypnea / Lung Auscultation / Toxemia and Vascular Congestion / Toxemia, Vascular Congestion, Cyanosis: C10 2 mg/kg iv pretreatment
[1] = C10 1 mg/kg every other day for 8 weeks
[2] = LPS 10 μg/kg, C10 (1 mg/kg) iv pretreatment, time 0.15-6 hours

Cn1c(-c2ccccc2)cnc1S [Compound C10, 5-Phenylmethimazole]
normal: abdominal pain, diarrhea, collapse or prostration (horses; LPS 10 μg/kg, C10 (1 mg/kg) iv pretreatment, 1 week) | abdominal pain, diarrhea, collapse or prostration (horses; LPS 10 μg/kg, C10 (1 mg/kg) iv pretreatment, time 0 hours) | abdominal pain, diarrhea, collapse or prostration (horses; LPS 10 μg/kg, C10 (1 mg/kg) iv pretreatment, time 24 hours)
dose dependent reduction: LPS induced IRF-1 binding to the MxISRE element (EMSA) (IRF-1; RAW 264.7, LPS 1 μg/mL 2 hours)
+*: AORTIC INFLAMMATION (ApoE−/− mice; [1]) | CORONARY AND MYOCARDIAL VESSELS INFLAMMATION (ApoE−/− mice; [1])
clearly blocked: symptoms of endotoxemia (hypotension, hypoxemia, collapse, cardiac anoxia, acute renal failure) (horses; LPS)
strong reduction: LPS-increased IRF-1 mRNA (IRF-1; RAW 264.7, LPS 1 μg/mL, 2 and 3 hours, Northern)
decreased: weight gain (ApoE−/− mice; C10 orally and ip, 4 weeks)
Weak Congestion: Toxemia and Vascular Congestion (horses; LPS 10 μg/kg, time 0.3 hours) | Toxemia, Vascular Congestion, Cyanosis (horses; LPS 10 μg/kg, time 0.3 hours) | Toxemia and Vascular Congestion (horses; LPS 10 μg/kg, time 3 hours) | Toxemia, Vascular Congestion, Cyanosis (horses; LPS 10 μg/kg, time 3 hours)
1 stool: number of stools (horses; [2])
Normal: Dyspnea and Tachypnea (horses; LPS 10 μg/kg, 1 week) | Lung Auscultation (horses; LPS 10 μg/kg, 1 week) | Toxemia and Vascular Congestion (horses; LPS 10 μg/kg, 1 week) | Toxemia, Vascular Congestion, Cyanosis (horses; LPS 10 μg/kg, 1 week) | Dyspnea and Tachypnea (horses; LPS 10 μg/kg, time 0.00 hours) | Lung Auscultation (horses; LPS 10 μg/kg, time 0.00 hours) | Toxemia and Vascular Congestion (horses; LPS 10 μg/kg, time 0.00 hours) | Toxemia, Vascular Congestion, Cyanosis (horses; LPS 10 μg/kg, time 0.00 hours) | Dyspnea and Tachypnea (horses; LPS 10 μg/kg, time 0.15 hours) | Toxemia, Vascular Congestion, Cyanosis (horses; LPS 10 μg/kg, time 0.15 hours) | Dyspnea and Tachypnea (horses; LPS 10 μg/kg, time 0.3 hours) | Lung Auscultation (horses; LPS 10 μg/kg, time 0.3 hours) | Dyspnea and Tachypnea (horses; LPS 10 μg/kg, time 3 hours) | Lung Auscultation (horses; LPS 10 μg/kg, time 3 hours) | Dyspnea and Tachypnea (horses; LPS 10 μg/kg, time 24 hours) | Lung Auscultation (horses; LPS 10 μg/kg, time 24 hours) | Toxemia and Vascular Congestion (horses; LPS 10 μg/kg, time 24 hours) | Toxemia, Vascular Congestion, Cyanosis (horses; LPS 10 μg/kg, time 24 hours) | abdominal pain, diarrhea, collapse or prostration (horses; [2])
